Values of other authors, collected in patent publication US4477441A, “Renin inhibitors containing a C-terminal disulfide cycle” (Merck & Co., Inc., priority 1983, dated 1984).

System: hog renin
Settings: nephrectomized rats after injection of hog renin; Gross et al. 1971

Substance: Pepstatin
- blood pressure in vivo: reduce blood pressure in vivo
